Data on ten compounds can be found in US12054660B2, “Compound, composition, cured substance, optically anisotropic body, optical element, and light guide element” (FUJIFILM Corporation, priority 2021, dated 2024).

Common to all, as to type: physicochemical
A short description of series [1]: Evaluation of liquid crystallinity (hot stage, polarization microscope). Details: key: A case of having liquid crystallinity was evaluated as A; a case of having no liquid crystallinity was evaluated as B. The note with it: heated on a hot stage. An excerpt: As a specific observation method, optical anisotropy and fluidity derived from the liquid crystal phase can be checked by carrying out an observation under a polarization microscope while heating or lowering the temperature of the compound with a hot stage or the like.
The respective compounds of Examples and Comparative Examples (the compounds A-1, A-3 to A-20, and the compounds RA-1 and RA-2) were heated on a hot stage and observed with a polarization microscope, and the phase transition temperature was measured to evaluate the presence or absence of liquid crystallinity. A case of having liquid crystallinity was evaluated as A, and a case of having no liquid crystallinity was evaluated as B. The results are shown in Table 1.

Series [2] in a line: Measurement of Δn (refractive index anisotropy), wedge-shaped liquid crystal cell. Conditions: 550 nm, 30° C. or lower limit temperature of nematic phase+0 to 10° C.; some extrapolated from 1/2 mixture with L-1-1. The method, then: The Δn of each of the compounds of Examples and Comparative Examples (the compounds A-1, A-3 to A-20, and the compounds RA-1 and RA-2), which are the compounds to be measured, was measured by a method using a wedge-shaped liquid crystal cell described on page 202 in the Liquid crystal handbook (edited by the liquid crystal handbook editorial board, published by Maruzen Co., Ltd., 2000). An was defined as a measured value at a wavelength of 550 nm at 30° C. or the lower limit temperature of the nematic phase+0° C. to 10° C. In a case of a compound which is liable to crystallize or a compound having no liquid crystallinity, evaluation was carried out using a mixture thereof with the other liquid crystal compound, and Δn was estimated from the extrapolated value of the measured value thereof. The following L-1-1 was used as the other liquid crystal compound. As the above mixture, a mixture obtained by mixing at a ratio of the compound to be measured/the L-1-1=1/2 (in terms of mass ratio) was used.
A case where Δn was 0.35 or more was evaluated as A, a case where Δn was 0.32 or more and less than 0.35 was evaluated as B, a case where Δn was 0.30 or more and less than 0.32 was evaluated as C, and a case where Δn was less than 0.30 was evaluated as D. The results are shown in Table 1.

Series [3] is described as follows: Evaluation of solubility in methyl ethyl ketone. The note with it: precipitation concentration in methyl ethyl ketone at room temperature (25° C.). The method, then:
The solubility of each of the compounds of Examples and Comparative Examples (the compounds A-1, A-3 to A-20, and the compounds RA-1 and RA-2) in methyl ethyl ketone was evaluated. A solution in which the compound was ultrasonically dissolved or dissolved by heating was produced.

A short description of series [4]: Evaluation of durability (moisture-heat resistance test) of optically anisotropic layer. The note with it: rate of change in Re of layer (25 parts compound/75 parts L-1) after 136 hours at 100° C., 95% RH. The protocol:
(§1) As shown below, the durability of the optically anisotropic layer produced using the composition containing each of the compounds A-1 and A-3 to A-20, and the compounds RA-1 and RA-2 was evaluated.
(§2) A coating composition having the following composition was prepared and applied by spin coating onto a rubbing-treated glass attached with an alignment film.
(§3) The polymerizable liquid crystal compound L-1 is a mixture obtained by mixing at a ratio of the following L-1-1/L-1-2/L-1-3=84/14/2 (in terms of mass ratio).
(§4) Re is an in-plane retardation. Rate of change in Re (%)=[100×{|(Re after test)−(Re before test)|}/(Re before test)]
(§5) Re was measured with Axoscan manufactured by Axometrics, Inc. at a wavelength of 550 nm, and the measurement temperature was set to room temperature.
The produced optically anisotropic layer was allowed to be left for 136 hours at 100° C. and a relative humidity of 95% RH, whereby a moisture-heat resistance test was carried out. The rate of change in Re before and after the durability test was evaluated, the durability in a case where the rate of change in Re was less than 10% was evaluated as A, and the durability in a case where the rate of change in Re was 10% or more was evaluated as B. The smaller the rate of change in Re, the more excellent the durability.

Series [5] is described as follows: Evaluation of light resistance of optically anisotropic layer. The note with it: rate of change in Re of layer (25 parts compound/75 parts L-1) after xenon irradiation 50 hours, 63° C., 50% RH, oxygen-blocking. The method, then: as §1, §2, §3
The produced optically anisotropic layers for light resistance/durability tests were irradiated with light using a Super Xenon Weather Meter SX75 manufactured by Suga Test Instruments Co., Ltd. Using KU-1000100 manufactured by King Seisakusho Co., Ltd. as an ultraviolet ray cut filter, irradiation with 5 million 1× of light was carried out for 50 hours under the oxygen-blocking conditions to carry out a light resistance test. The temperature of the specimen to be tested (the temperature inside the test device) was set to 63° C. The relative humidity in the test device was 50% RH.
The Re of the optically anisotropic layer before and after the light resistance test was measured, the light resistance in a case where the rate of change in Re described below was less than 10% was evaluated as A, and the light resistance in a case where the rate of change in Re was 10% or more was evaluated as B. The smaller the rate of change in Re, the more excellent the light resistance.
as §4, §5

Consider `CC(=O)OCCSc1ccc(C#Cc2ccc(CSc3ccc(C#Cc4ccc(CCOC(C)=O)cc4)cc3)cc2C)cc1` [Compound A-1], for which, in series [1], the Liquid crystallinity entry is given as “B”. For the same compound, the Δn result in series [2] is reported as “A (A case where Δn was 0.35 or more was evaluated as A)”. The Solubility entry in series [3] is on record as “A (the solubility in a case where the precipitation concentration was 10% by mass or more was evaluated as A)”. Moreover, the Durability entry in series [4] is listed as “B (the durability in a case where the rate of change in Re was 10% or more was evaluated as B)”. Also, the Light resistance result in series [5] is “A (the light resistance in a case where the rate of change in Re described below was less than 10% was evaluated as A)”.
For `C=CC(=O)OCCSc1ccc(C#Cc2ccc(COc3ccc(C#Cc4ccc(SCCOC(=O)C=C)cc4)cc3C(=O)OC)cc2)cc1` [Compound A-3] the same measures were “A”, “A (A case where Δn was 0.35 or more was evaluated as A)”, “A (the solubility in a case where the precipitation concentration was 10% by mass or more was evaluated as A)”, “A (the durability in a case where the rate of change in Re was less than 10% was evaluated as A)” and “A (the light resistance in a case where the rate of change in Re described below was less than 10% was evaluated as A)”.
For `C=CC(=O)OCCSc1ccc(C#Cc2ccc(C(=O)Oc3ccc(C#Cc4ccc(SCCOC(=O)C=C)cc4)cc3C(=O)OC)cc2)cc1` [Compound A-4] the same measures were “A”, “A (A case where Δn was 0.35 or more was evaluated as A)”, “A (the solubility in a case where the precipitation concentration was 10% by mass or more was evaluated as A)”, “A (the durability in a case where the rate of change in Re was less than 10% was evaluated as A)” and “B (the light resistance in a case where the rate of change in Re was 10% or more was evaluated as B)”.
For `C=CC(=O)OCCSc1ccc(C#Cc2ccc(SCc3ccc(C#Cc4ccc(SCCOC(=O)C=C)cc4)c(OC)c3)cc2)cc1` [Compound A-5] the same measures were “B”, “A (A case where Δn was 0.35 or more was evaluated as A)”, “A (the solubility in a case where the precipitation concentration was 10% by mass or more was evaluated as A)”, “A (the durability in a case where the rate of change in Re was less than 10% was evaluated as A)” and “A (the light resistance in a case where the rate of change in Re described below was less than 10% was evaluated as A)”.
Turning to `C=CC(=O)OCCSc1ccc(C#Cc2ccc(COc3ccc(C#Cc4ccc(SCCOC(=O)C=C)cc4)cc3C)cc2)cc1` [Compound A-6], in series [1], the Liquid crystallinity result is on record as “A”. Also, the Δn result in series [2] is recorded as “A (A case where Δn was 0.35 or more was evaluated as A)”. Moreover, the Solubility entry in series [3] was “A (the solubility in a case where the precipitation concentration was 10% by mass or more was evaluated as A)”. Besides, the Durability entry in series [4] is recorded as “A (the durability in a case where the rate of change in Re was less than 10% was evaluated as A)”. Also, in series [5], the Light resistance result is reported as “A (the light resistance in a case where the rate of change in Re described below was less than 10% was evaluated as A)”.
Regarding `CC(=O)OCCSc1ccc(C#Cc2ccc(COc3ccc(C#Cc4ccc(CCOC(C)=O)cc4)cc3)cc2C)cc1` [Compound A-13], the Liquid crystallinity entry in series [1] is recorded as “A”. In addition, the Δn result in series [2] was “B (a case where Δn was 0.32 or more and less than 0.35 was evaluated as B)”. In addition, the Solubility entry in series [3] was “A (the solubility in a case where the precipitation concentration was 10% by mass or more was evaluated as A)”. Besides, the Durability entry in series [4] is listed as “B (the durability in a case where the rate of change in Re was 10% or more was evaluated as B)”. Further, the Light resistance result in series [5] is “A (the light resistance in a case where the rate of change in Re described below was less than 10% was evaluated as A)”.
For the compound `C=CC(=O)OCCSc1ccc(C#Cc2ccc(COc3ccc(OCc4ccc(C#Cc5ccc(SCCOC(=O)C=C)cc5)cc4)c(C(=O)OC)c3)cc2)cc1` [Compound A-14], in series [1], the Liquid crystallinity entry is “A”. Also, the Δn entry in series [2] is listed as “A (A case where Δn was 0.35 or more was evaluated as A)”. In series [3], the Solubility result is “B (the solubility in a case where the precipitation concentration was less than 10% by mass was evaluated as B)”. In addition, in series [4], the Durability result is “A (the durability in a case where the rate of change in Re was less than 10% was evaluated as A)”. For the same compound, the Light resistance result in series [5] is on record as “A (the light resistance in a case where the rate of change in Re described below was less than 10% was evaluated as A)”.
For `CC(=O)OCCSc1ccc(C#Cc2ccc(OCc3ccc(C#Cc4ccc(COc5ccc(C#Cc6ccc(SCCOC(C)=O)cc6)cc5C)cc4)cc3)c(C)c2)cc1` [Compound A-15] the same measures were “A”, “A (A case where Δn was 0.35 or more was evaluated as A)”, “B (the solubility in a case where the precipitation concentration was less than 10% by mass was evaluated as B)”, “B (the durability in a case where the rate of change in Re was 10% or more was evaluated as B)” and “A (the light resistance in a case where the rate of change in Re described below was less than 10% was evaluated as A)”.
Consider `C=CC(=O)OCCSc1ccc(C#Cc2ccc(OCc3ccc(C#Cc4ccc(SCCOC(=O)C=C)cc4)s3)c(C(=O)OC)c2)cc1` [Compound A-16], for which the Liquid crystallinity entry in series [1] was “A”. In addition, the Δn entry in series [2] was “A (A case where Δn was 0.35 or more was evaluated as A)”. Besides, the Solubility entry in series [3] is on record as “A (the solubility in a case where the precipitation concentration was 10% by mass or more was evaluated as A)”. For the same compound, the Durability entry in series [4] is given as “A (the durability in a case where the rate of change in Re was less than 10% was evaluated as A)”. The Light resistance result in series [5] is “B (the light resistance in a case where the rate of change in Re was 10% or more was evaluated as B)”.
For `C=CC(=O)OCCOc1ccc(C#Cc2ccc(SCCSc3ccc(C#Cc4ccc(OCCOC(=O)C=C)c(C)c4)cc3)cc2)cc1C` [Compound A-17] the same measures were “B”, “A (A case where Δn was 0.35 or more was evaluated as A)”, “A (the solubility in a case where the precipitation concentration was 10% by mass or more was evaluated as A)”, “A (the durability in a case where the rate of change in Re was less than 10% was evaluated as A)” and “A (the light resistance in a case where the rate of change in Re described below was less than 10% was evaluated as A)”.
